# In paper PMC11984392, “EphA2-targeted alpha-particle theranostics for enhancing PDAC treatment” (Theranostics, 2025):
# Like-named read-outs stand apart in the source and are kept apart here. *1 amine or outer side, *2 acyl side, *3 side chain or, on linkers, in order; H or OH if unused. Where a SMILES comes first, the peptide text is derived from it. Bridges are numbered along the chain shown (N, C = ends). [ ]: non-standard residue; d: D form. The star is where a group is joined. TATA = O=C(CC[*:1])N1CN(C(=O)CC[*:2])CN(C(=O)CC[*:3])C1; NOTA = O=C(O)CN1CCN(CC(=O)O)CCN(CC(=O)*)CC1; Hyp = O=C(O)[C@@H]1C[C@@H](O)CN1; hArg = N=C(N)NCCCC[C@H](N)C(=O)O; PEG2 = NCCOCCOCCC(=O)O; Sar = CNCC(=O)O
# Assays:
# [1] = In vitro stability of radiotracers in saline / formulation buffer; format: physicochemical; conditions: 37 °C, radio-RP-HPLC
# Protocol: The stability of the radiotracers was assessed in saline and human serum at 37 °C to mimic physiological conditions. Approximately 1.5 mCi of the radiotracer, prepared in 100-150 µL of saline, was added to 0.5 mL of either saline or human serum in separate microcentrifuge tubes. The mixtures were gently vortexed and then incubated at 37 °C in an incubator. At predetermined time-points (1, 2, and 3 h), 100 µL aliquots were collected from the incubation mixtures for analysis. For serum samples, proteins were removed by adding 100 µL of saline and 50 µL of ethanol, followed by ultrafiltration using 10 kDa centrifugal filters made of regenerative cellulose membranes. The filtration process was performed by centrifugation at 14,000 rpm for 10 min and repeated once more to ensure complete protein removal. The filtrate was collected for analysis. The radiochemical integrity of the radiotracer in both saline and serum was evaluated using radio-RP-HPLC.
# CFPAC tumor xenografts = test: Ex vivo biodistribution; format: in vivo, NSG mice; conditions: CFPAC xenograft; 60 min p.i.; mean ± SEM (n = 4 or 5)
# Protocol: (§1) Animal studies were performed under Johns Hopkins University Animal Care and Use Committee (ACUC)-approved protocol (Principal investigator: Sridhar Nimmagadda, Ph.D. and Protocol number M021M175). Male and Female NSG mice (5-6 weeks old) were purchased from JHU immunocompromised core and used to establish xenografts by administering cells subcutaneously (top right flank, unless otherwise noted) to form various tumor models within 3-4 weeks. Following cell numbers were used: Panc1, AsPC1, BxPC3 (1 M), Hs766T and SU8686 (2 M), CFPAC and Panc1005 (5 M). Imaging or biodistribution studies (n = 3-5) were conducted on mice with tumor volumes of 100-200 mm^3. The Panc1 orthotopic tumor model was established by surgically implanting a 3-5 mm^3 section of Panc1 tumor xenograft directly onto the pancreas. The implanted tumors were allowed to grow and were ready for imaging after 10 days of implantation.
# (§2) Mice with 100-200 mm^3 tumor volume were used for ex vivo biodistribution studies. For radiotracer pharmacokinetics and dosimetry studies, mice with Panc1 tumor xenograft received ~80 µCi (2.96 MBq) [^68Ga]AJ201 and were sacrificed at pre-determined time points (5, 30, 60, 90 and 120 min). All other mice were injected with ~50 µCi (1.85 MBq; 0.2 to 0.5 nmol) Ga-68 labeled radiotracer and were sacrificed at 60 min. The selected tissues were collected, weighed, counted, and their %ID/g values calculated for biodistribution analysis. For pharmacokinetics and dosimetry studies, selected tissues included blood, muscle, tumor, thymus, heart, lung, liver, pancreas, stomach, small intestine, large intestine, spleen, adrenals, kidney, bladder, femur, brain and tumor xenografts. For other studies, selected tissues were blood, muscle, tumor, heart, lung, liver, pancreas, small intestine, spleen, kidney.
# Ex vivo biodistribution = format: in vivo, NSG mice; conditions: both sexes, NSG, mouse, total radioactivity, 60 min p.i., mean ± SEM (n = 4 or 5)
# Protocol: as §1, §2
compound,measurement,setting,value
"CC(C)C[C@@H]1NC(=O)[C@@H]2CSCCC(=O)N3CN(CN(C3)C(=O)CCSC[C@H](NC(=O)[C@H](CC(=O)O)NC(=O)[C@H](CCCCNC(=N)N)NC(=O)[C@H](C)NC(=O)CNC(=O)CN(C)C(=O)CN(C)C(=O)CN(C)C(=O)[C@H](CCCNC(=N)N)NC(=O)CNC(=O)CCOCCOCCNC(=O)CN3CCN(CC(=O)O)CCN(CC(=O)O)CC3)C(=O)N3C[C@H](O)C[C@H]3C(=O)N[C@@H](CC(C)C)C(=O)N[C@@H](C(C)C)C(=O)N[C@@H](CC(N)=O)C(=O)N3CCC[C@H]3C(=O)N[C@@H](CC(C)C)C(=O)N2)C(=O)CCSC[C@@H](C(N)=O)NC(=O)[C@H](CCCCNC(=N)N)NC(=O)[C@H](Cc2c[nH]c3ccccc23)NC(=O)[C@@H](CC(=O)O)NC(=O)[C@@H]2CCCN2C(=O)[C@H](Cc2c[nH]cn2)NC1=O [[^68Ga]AJ201, metal not drawn] ({NOTA-PEG2}-GR[Sar][Sar][Sar]GA[hArg]DC[Hyp]LVNPLCLHP[dD]W[hArg]C-NH2; linker 10-17-24 via TATA)",Time of stability in formulation buffer,[1]; 10% EtOH/saline,at least 3 h
same,Stability in saline (radio-HPLC finding),"[1]; saline, up to 3 h, ~1.5 mCi in 0.5 mL",stable without noticeable degradation or impurity formation
same,Muscle uptake,CFPAC tumor xenografts,0.21 ± 0.04 %ID/g
same,Small intestine uptake,CFPAC tumor xenografts,0.51 ± 0.10 %ID/g
same,tissue uptake at 1 h,"Ex vivo biodistribution; blood, AsPC1 xenograft, read-out: Blood uptake",3.32 ± 0.24 %ID/g
same,tissue uptake at 1 h,"Ex vivo biodistribution; blood, BxPC3 xenograft, read-out: Blood uptake",0.58 ± 0.04 %ID/g
same,tissue uptake at 1 h,"Ex vivo biodistribution; blood, CFPAC xenograft, read-out: Blood uptake",0.69 ± 0.21 %ID/g
same,tissue uptake at 1 h,"Ex vivo biodistribution; blood, Hs766T xenograft, read-out: Blood uptake",1.39 ± 0.3 %ID/g
same,tissue uptake at 1 h,"Ex vivo biodistribution; blood, Panc1005 xenograft, read-out: Blood uptake",0.44 ± 0.05 %ID/g
same,tissue uptake at 1 h,"Ex vivo biodistribution; blood, Su8686 xenograft, read-out: Blood uptake",0.71 ± 0.18 %ID/g
same,tissue uptake at 1 h,"Ex vivo biodistribution; heart, AsPC1 xenograft, read-out: Heart uptake",1.25 ± 0.1 %ID/g
same,tissue uptake at 1 h,"Ex vivo biodistribution; heart, CFPAC xenograft, read-out: Heart uptake",0.34 ± 0.08 %ID/g
same,tissue uptake at 1 h,"Ex vivo biodistribution; heart, Hs766T xenograft, read-out: Heart uptake",0.9 ± 0.25 %ID/g
same,tissue uptake at 1 h,"Ex vivo biodistribution; heart, Panc1005 xenograft, read-out: Heart uptake",0.2 ± 0.02 %ID/g
same,tissue uptake at 1 h,"Ex vivo biodistribution; heart, Su8686 xenograft, read-out: Heart uptake",0.25 ± 0.06 %ID/g
same,tissue uptake at 1 h,"Ex vivo biodistribution; kidney, AsPC1 xenograft, read-out: Kidney uptake",59.6 ± 2.86 %ID/g
same,tissue uptake at 1 h,"Ex vivo biodistribution; kidney, BxPC3 xenograft, read-out: Kidney uptake",59 ± 7.17 %ID/g
same,tissue uptake at 1 h,"Ex vivo biodistribution; kidney, CFPAC xenograft, read-out: Kidney uptake",69.1 ± 4.56 %ID/g
same,tissue uptake at 1 h,"Ex vivo biodistribution; kidney, Hs766T xenograft, read-out: Kidney uptake",52.6 ± 4.07 %ID/g
same,tissue uptake at 1 h,"Ex vivo biodistribution; kidney, Panc1005 xenograft, read-out: Kidney uptake",67 ± 6.9 %ID/g
same,tissue uptake at 1 h,"Ex vivo biodistribution; kidney, Su8686 xenograft, read-out: Kidney uptake",37.7 ± 2.64 %ID/g
same,tissue uptake at 1 h,"Ex vivo biodistribution; liver, AsPC1 xenograft, read-out: Liver uptake",1.59 ± 0.07 %ID/g
same,tissue uptake at 1 h,"Ex vivo biodistribution; liver, BxPC3 xenograft, read-out: Liver uptake",0.42 ± 0.02 %ID/g
same,tissue uptake at 1 h,"Ex vivo biodistribution; liver, CFPAC xenograft, read-out: Liver uptake",0.43 ± 0.09 %ID/g
same,tissue uptake at 1 h,"Ex vivo biodistribution; liver, Hs766T xenograft, read-out: Liver uptake",0.89 ± 0.21 %ID/g
same,tissue uptake at 1 h,"Ex vivo biodistribution; liver, Panc1005 xenograft, read-out: Liver uptake",0.29 ± 0.03 %ID/g
same,tissue uptake at 1 h,"Ex vivo biodistribution; liver, Su8686 xenograft, read-out: Liver uptake",0.34 ± 0.06 %ID/g
same,tissue uptake at 1 h,"Ex vivo biodistribution; lung, AsPC1 xenograft, read-out: Lung uptake",2.78 ± 0.13 %ID/g
same,tissue uptake at 1 h,"Ex vivo biodistribution; lung, BxPC3 xenograft, read-out: Lung uptake",0.7 ± 0.04 %ID/g
same,tissue uptake at 1 h,"Ex vivo biodistribution; lung, CFPAC xenograft, read-out: Lung uptake",0.89 ± 0.2 %ID/g
same,tissue uptake at 1 h,"Ex vivo biodistribution; lung, Hs766T xenograft, read-out: Lung uptake",1.71 ± 0.55 %ID/g
same,tissue uptake at 1 h,"Ex vivo biodistribution; lung, Panc1005 xenograft, read-out: Lung uptake",0.54 ± 0.05 %ID/g
same,tissue uptake at 1 h,"Ex vivo biodistribution; lung, Su8686 xenograft, read-out: Lung uptake",0.76 ± 0.16 %ID/g
same,tissue uptake at 1 h,"Ex vivo biodistribution; muscle, AsPC1 xenograft, read-out: Muscle uptake",0.41 ± 0.03 %ID/g
same,tissue uptake at 1 h,"Ex vivo biodistribution; muscle, BxPC3 xenograft, read-out: Muscle uptake",0.18 ± 0.01 %ID/g
same,tissue uptake at 1 h,"Ex vivo biodistribution; muscle, Hs766T xenograft, read-out: Muscle uptake",0.46 ± 0.13 %ID/g
same,tissue uptake at 1 h,"Ex vivo biodistribution; muscle, Panc1005 xenograft, read-out: Muscle uptake",0.11 ± 0.01 %ID/g
same,tissue uptake at 1 h,"Ex vivo biodistribution; muscle, Su8686 xenograft, read-out: Muscle uptake",0.16 ± 0.04 %ID/g
same,tissue uptake at 1 h,"Ex vivo biodistribution; pancreas, AsPC1 xenograft, read-out: Pancreas uptake",0.65 ± 0.04 %ID/g
same,tissue uptake at 1 h,"Ex vivo biodistribution; pancreas, BxPC3 xenograft, read-out: Pancreas uptake",0.25 ± 0.02 %ID/g
